Results as given in US20150051210A1, “Tyrosine Kinase Inhibitor Combinations and their Use” (Novartis AG, priority 2012, published 2015).

Columns and labels:
[1] = test system: MKN-45 cells; assay: MKN-45 Dual Inhibition: reversal of rescue with selective inhibitors, CellTiter-Glo cell viability; type: cell-based; conditions: for activity on cell viability (reversal of rescue): MET-dependent MKN-45, rhFGF7 or rhNRG-1 250 ng/ml, 96 h, Cpd. A/Cpd. B 100 nM, BGJ398 500 nM, Lapatinib 1.5 μM, FIG. 3, FIG. 4
Procedure: MKN-45 Secretome screen: MKN-45 cells were plated in white, tissue-culture treated 384-well plates (Greiner) at 3000 cells/20 μl DMEM +10% FBS/well and allowed to attach overnight. Supernatant from library-transfected HEK293T/17 cells was then transferred to the MKN-45 cells at 30 μl/well using a Biomek FX liquid handler (Beckman Coulter) with pipetting speeds reduced to minimize disturbance of the HEK293T/17 monolayer. As positive controls, the purified proteins rhEGF and rhNRG1-31 (R&D Systems) were added to isolated wells on each plate for a final concentration of 150 ng/ml; supernatant from mock-transfected HEK293T/17 wells were transferred as neutral controls. Following addition of supernatants and purified protein controls, Cpd. A diluted in DMEM was added at 10 μl/well for a final assay concentration of 100 nM. After 96 hours incubation, growth was measured using the CellTiter-Glo luminescent cell viability assay system (Promega). In brief, 30 μl CellTiter-Glo reagent was added to all wells, then incubated for 15 minutes at room temperature before reading luminescence on a Viewlux plate reader (Perkin Elmer). (FIG. 1)
MKN-45 Dual Inhibition: MKN-45 cells were seeded at 3000 cells/20 μl/well in 384-well plates and incubated overnight. Solutions of rhFGF7 and rhNRG-1 were prepared in DMEM+10%FBS, then added at 30 μl/well to achieve a final concentration of 250 ng/ml (one purified protein per treatment). The following single and dual inhibition treatments were prepared in DMEM and added at […]: Cpd. A, Cpd. B, BGJ398, Lapatinib, Cpd. A and BGJ398, Cpd. B and BGJ398, Cpd. A and Lapatinib, Cpd. B and Lapatinib. Final concentrations for each compound, whether single or combined, were as follows: 100 nM for Cpd. A and Cpd. B, 500 nM for BGJ398 and 1.5 μM for Lapatinib. After 96 hours cell viability was measured by CellTiter-Glo as previously described. (FIG. 3, FIG. 4)

[2] = test system: phosphorylation of MET, FRS2, ERK, AKT in RT-112; assay: Western blots of protein phosphorylation in RT-112 cells; type: cell-based
Procedure: Western Blots (Figures not Shown) MKN-45 and RT-112 cells were treated in 6-well plates for 2 hours and 18 hours in the presence or absence of purified protein (rhFGF7, rhNRG1-31, or rhHGF), and/or inhibitor (Cpd. B, Cpd. A, BGJ398). Following wash with ice-cold PBS, cells were lysed with RIPA buffer (Thermo) containing phosphatase (Thermo) and proteinase (Roche) inhibitor cocktails. Total protein was quantified by bicinchoninic protein assay (Pierce). Aliquots of 20 μg were resolved by electrophoresis on NuPAGE SDS-PAGE 4-12% BIS-Tris gels before transfer to nitrocellulose membranes. Membranes were blocked for one hour at room temperature before overnight incubation at 4° C. with the following primary antibodies (source rabbit, 1:1000 final dilution): anti-phospho-Akt (Ser473), anti-phospho-MET (Tyr1234/1235), anti-phospho-MAPK/ERK(1/2) (Thr202/Tyr204), anti-AKT, anti-MAPK/Erk(1/2), and anti-α/β-Tubulin . Anti-MET was probed at 1:800 final dilution An internal antibody was used for phospho-FRS2(Y346) (1:1500 dilution). Membranes were then washed 3 times in PBS+0.1% Tween before addition of secondary antibody, IRDye 680LT goat anti-rabbit IgG , dilution 1:15000. After one hour at room temperature, membranes were washed and bands were visualized using an Odyssey Infrared Imager.

[3] = test system: patient-derived non-small cell lung cancer xenograft LXFL 1121; assay: In vivo anti-tumor efficacy study in xenograft LXFL 1121; conditions: for anti-tumor effect compared to vehicle control / Δ tumor volume: Cpd. B 10 mg/kg bid/qd; for anti-tumor effect compared to vehicle control: BGJ398 40 mg/kg qd orally, 18 days; for Δ tumor volume: end values, BGJ398 40 mg/kg qd, control C 309.6
Procedure: The in vivo anti-tumor efficacy study in the patient-derived non-small cell lung cancer xenograft LXFL 1121 was carried out. Xenografts were grown subcutaneously in nude mice. Eight tumor-bearing mice each were treated with either vehicle control, Cpd. B alone, BGJ398 alone or both drugs in combination at the doses and frequencies indicated. Note that frequency of Cpd. […] Tumor volumes were measured on the indicated days and synergy of the combination treatment was assessed by the method of Clarke, R., Breast Cancer Res. Treat., […].
Mice bearing xenografts derived from this model were randomized to 4 groups that were then treated with a vehicle control, Cpd. B as single agent, BGJ398 as single agent or a combination of both drugs. Cpd. B was commenced at a dose of 10 mg/kg twice daily. BGJ398 was given orally at a dose of 40 mg/kg once daily, and the same regimen for both drugs was used in combination. […] The study was continued in this setup until day 18.
The significance of combination data was assessed using the method presented by Clark (2), which can estimate interactions from limited data. For compound A, B or the combination AB (with control group C), the end values are collected. Antagonism is predicted when the calculation AB/C>A/C×B/C, additive AB/C=A/C×B/C, synergistic interactions are predicted to occur when […].

[4] = Δ tumor volume relative to control group C

| SMILES | activity on cell viability (reversal of rescue) [1] | prevention of HGF rescue of ERK phosphorylation ([2]; RT-112, BGJ398 plus HGF, simultaneous addition) | MET phosphorylation ([2]; RT-112, absence of ligands) | anti-tumor effect compared to vehicle control [3] | Δ tumor volume [3] | A/C [3, 4] | reversal of ligand-mediated rescue of proliferation ([1]; MKN-45 in presence of MET inhibitor Cpd. A or Cpd. B, FIGS. 3, 4) | FRS2 and ERK phosphorylation ([2]; RT-112, absence of ligands) | B/C [3, 4] |
| --- | --- | --- | --- | --- | --- | --- | --- | --- | --- |
| CNC(=O)c1ccc(-c2cnc3ncc(Cc4ccc5ncccc5c4)n3n2)cc1F [Cpd. B, 2-fluoro-N-methyl-4-[(7-quinolin-6-yl-methyl)-imidazo[1,2-b]triazin-2-yl]benzamide] | active | prevented this rescue effect | specifically inhibited MET phosphorylation | very modest, statistically not significant anti-tumor effect | 333.6 | 1.078 |  |  |  |
| CCN1CCN(c2ccc(Nc3cc(N(C)C(=O)Nc4c(Cl)c(OC)cc(OC)c4Cl)ncn3)cc2)CC1 [BGJ398, 3-(2,6-dichloro-3,5-dimethoxy-phenyl)-1-{6-[4-(4-ethylpiperazin-1-yl)-phenylamino]-pyrimidin-4-yl}-1-methyl-urea] | not sufficient |  |  | strong tumor growth inhibition resulting in stable disease | −16.6 |  | selectively reverse rescue mediated by FGF7 | reduced both FRS2 and ERK phosphorylation | −0.054 |
